The nature of data set [1]: Effective utilization of exogenous glycerides on daily carnitine dosing. It is filed as in vivo, patient. Here is the method:
The dose of carnitine which is administered will be determined by the attending physician having regard to the age, weight and condition of the patient, using sound professional judgement. Although effective utilization of exogenous glycerides can be noticed at doses as low as from 30 to 50 mg/kg of body weight daily, a dose of from about 150 to about 200 mg/kg of body weight daily is preferred.

Data set [2] can be described thus: LD50 acute toxicity, mouse (Litchfield and Wilcoxon method). The conditions noted are these: in vivo. An excerpt: (§1) As known, carnitine contains an asimmetric atom and consequently exists in two stereoisomers. […] Thus, the LD50 in rats and mice assessed for various routes of administration according to the Litchfield and Wilcoxon method is as shown in the following Table A. (Litchfield, J. T., and Wilcoxon, F., J. Pharm. Exptl. Therap. 96, 99. 1949).

Data set [3] can be described thus: Activity and toxicity comparison of carnitine isomers (in words). The settings on record: isomers of carnitine compared.
Excerpt: as §1

Data set [4] in a line: LD50 acute toxicity, rat (Litchfield and Wilcoxon method). The settings on record: in vivo.
Excerpt: as §1

With `C[N+](C)(C)CC(O)CC(=O)[O-]` (stereo not shown) [carnitine], the minimal effective dose in data set [1] (Homo sapiens, daily carnitine dose, read-out: dose at which effective utilization of exogenous glycerides can be noticed) fell in the range of 30 to 50 mg/kg/day. Further, the toxicity of carnitine entry in data set [1] (in vivo) is recorded as “extremely low toxicity”.

`C[N+](C)(C)C[C@H](O)CC(=O)[O-]` [L-carnitine] gave an LD50 in data set [2] (sc) of 7000 mg/kg. Besides, the “activity of the isomer” value in data set [3] was “more active”.

Regarding `C[N+](C)(C)C[C@@H](O)CC(=O)[O-]` [D-carnitine], the 50% lethal dose (LD50) was 10000 mg/kg in data set [4] (sc) and 5400 mg/kg in data set [2] (sc). For the same molecule, the “toxicity of the isomer” value in data set [3] was “slightly more toxic”.

`C[N+](C)(C)CC(O)CC(=O)[O-]` (racemic) [D,L-carnitine]: the values for the LD50 in data set [4] (iv), in data set [2] (iv) and in data set [2] (sc) were 995 mg/kg, 610 mg/kg and 6000 mg/kg, respectively.

Usually LD50 stands for the dose expected to kill half of the subjects tested. Low readings indicate greater toxicity, high ones lower toxicity.

Values taken from patent US4254147A, “Pharmaceutical composition for total parenteral nutrition” (priority 1978, dated 1981).
